# Data published in patent US10995091B2 (Proximagen, LLC, priority 2010, dated 2021).
# Key:
# [1] = test system: haematopoietic stem cells; details: donors or patients; background statement; cited from earlier work
# [2] = test system: circulating white blood cells (WBC); test: In vivo mobilization of white blood cells (WBC count in peripheral blood); details: C57BL/6 mice
# Description: (§1) The study investigated the ability of Example 30 alone and in combination with G-CSF to induce in vivo mobilization of white blood cells in C57BL/6 mice, as well as hematopoietic progenitors from bone marrow to peripheral blood as assessed by the evaluation of the frequency of colony forming cell colonies (CFC). Peripheral blood samples from each test group were collected 1 hour post injection. The white blood cell count (WBC) was determined from the peripheral blood collected for each individual mouse. Clonogenic progenitors of the multipotential (CFU-GEMM) lineages were assessed. Peripheral blood cells were added to MethoCult® 3434 in triplicate cultures for plating (0.5-3×10^5 cells/dish). Cultures were incubated for 8 days at 37° C., 5% CO2 in humidified incubators. CFU-GEMM colony number was enumerated microscopically using an inverted microscope from appropriately plated culture dishes.
# [3] = test system: HIV-1IIIB (CXCR4-tropic) virus; test: CXCR4-tropic HIV-1 attachment assay in MAGI-CCR5 cells (β-galactosidase reporter); assay type: cell-based; details: Human immunodeficiency virus 1, MAGI-CCR5, read-out: IC50, inhibition of attachment of CXCR4-tropic HIV-1
# Description: Example 30 was tested in an HIV attachment assay, which detects compounds that block HIV-1IIIB (CXCR4-tropic) virus attachment to cells.
# The CXCR4-tropic HIV-1 attachment assay uses MAGI-CCR5 cells that naturally express CXCR4 which were engineered to express high levels of CD4 and CCR5 and to contain one copy of the HIV-1 LTR promoter driving expression of the β-galactosidase gene upon HIV-1 Tat transactivation. Cells are incubated with Example 30 and the CXCR4-tropic virus HIV-1IIIB for 3 hours before washing to remove drug and unbound virus. Fresh media is added and the plates are incubated for 48 hours after which antiviral efficacy is measured as the inhibition of β-galactosidase reporter expression and cytotoxicity is monitored by MTS staining.
# [4] = test system: multipotential mixed hematopoietic progenitors (CFU-GEMM); test: In vivo mobilization of hematopoietic progenitors, colony forming cell assay (CFU-GEMM) from peripheral blood; details: C57BL/6 mice, one hour after treatment, compared to G-CSF treatment alone
# Description: as §1
# HIV-1IIIB (CXCR4-tropic) = test: HIV anti-viral assay in MAGI-CCR5 cells (β-galactosidase reporter); assay type: cell-based; details: Human immunodeficiency virus 1, 48 hours with compound and virus, read-out: IC50, HIV-1 antiviral activity
# Description: Example 30 was also tested in an HIV antiviral assay that detects compounds that block HIV-1IIIB (CXCR4-tropic) replication via targets in the viral life cycle. The anti-viral assay uses MAGI-CCR5 cells that naturally express CXCR4 which were engineered to express high levels of CD4 and CCR5 and to contain one copy of the HIV-1 LTR promoter driving expression of the β-galactosidase gene upon HIV 1 Tat transactivation. Cells are incubated with Example 30 and the CXCR4-tropic virus HIV-1IIIB for 48 hours after which antiviral efficacy is measured as the inhibition of β-galactosidase reporter expression and cytotoxicity is monitored by MTS staining.
# [5] = target: T1, Human CXCR4 transfected HEK293 cells (Homo sapiens, UniProt P61073); test: CXCR4 functional calcium assay (calcium flux FLIPR, antagonism of SDF1 response); assay type: cell-based; details: CXCR4 functional activity, antagonism of SDF1 (EC50 concentration), read-out: CXCR4 fKi
# T1 construct: expressed in transfected cells; host or cells: HEK293
# Summary of the method: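 HEK293 cells stably transfected with human CXCR4 were loaded with 2 μM Fluo-4 AM in HBSS containing 2.5 mM probenecid, 0.1% BSA and 10 mM HEPES at pH 7.4 and 37° C. Compound was added first, then SDF1 at its EC50 concentration, and intracellular calcium fluorescence was followed on a FLIPR. Antagonist dose-response curves were fitted.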
# T1 sequence (P61073 whole entry): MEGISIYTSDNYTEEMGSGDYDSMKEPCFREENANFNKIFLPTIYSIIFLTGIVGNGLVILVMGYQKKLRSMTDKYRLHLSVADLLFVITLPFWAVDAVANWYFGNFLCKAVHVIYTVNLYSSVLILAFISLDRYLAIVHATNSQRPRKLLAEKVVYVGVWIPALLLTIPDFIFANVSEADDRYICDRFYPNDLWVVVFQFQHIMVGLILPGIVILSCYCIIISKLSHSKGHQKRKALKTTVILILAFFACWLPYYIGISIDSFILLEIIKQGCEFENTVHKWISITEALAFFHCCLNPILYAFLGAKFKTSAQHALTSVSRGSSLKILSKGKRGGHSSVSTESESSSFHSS
Structure (SMILES),Ki [5] [nM],other results
c1cc(CN2CCCNCCNCCCNCC2)ccc1CN1CCCNCCNCCCNCC1 [Mozobil],,success rate of stem cell mobilisation (sufficient yield) [1]: ~90%
"CC(C)N1CCC(N2CCCN(c3cccc(C(=O)Nc4ccncc4)n3)CC2)CC1 [Example 30, 6-{4-[1-(Propan-2-yl)piperidin-4-yl]-1,4-diazepan-1-yl}-N-(pyridin-4-yl)pyridine-2-carboxamide]",< 20,"circulating white blood cells (WBC) ([2]; 1 hour after treatment, compared to vehicle control group): significant increase; circulating white blood cells (WBC), in combination with G-CSF ([2]; after 1 hour, in combination with G-CSF, compared to G-CSF alone): significant increase; IC50 [3]: 40 nM; multipotential mixed hematopoietic progenitors (CFU-GEMM/ml), in combination with G-CSF [4]: significant increase; IC50 (HIV-1IIIB (CXCR4-tropic)): 30 nM"
"CC(C)N1CCC(N2CCCN(c3cccc(C(=O)NCc4cccnc4)n3)CC2)CC1 [Example 34, 6-{4-[1-(Propan-2-yl)piperidin-4-yl]-1,4-diazepan-1-yl}-N-(pyridin-3-ylmethyl)pyridine-2-carboxamide]",< 20,
"Cc1ccc(NC(=O)c2cccc(N3CCCN(C4CCN(C(C)C)CC4)CC3)n2)cc1 [Example 27, N-(4-Methylphenyl)-6-{4-[1-(propan-2-yl)piperidin-4-yl]-1,4-diazepan-1-yl}pyridine-2-carboxamide]",20 to 100,
"COc1ccc2[nH]c(-c3cccc(N4CCCN(C5CCN(C(C)C)CC5)CC4)n3)cc2c1 [Example 105, 5-Methoxy-2-(6-{4-[1-(propan-2-yl)piperidin-4-yl]-1,4-diazepan-1-yl}pyridine-2-yl)-1H-indole]",500 to 1000,
"COCCNC(=O)c1cccc(N2CCCN(C3CCN(C(C)C)CC3)CC2)n1 [Example 14, N-(2-Methoxyethyl)-6-{4-[1-(propan-2-yl)piperidin-4-yl]-1,4-diazepan-1-yl}pyridine-2-carboxamide]",20 to 100,

# Continued, in another order:
Ki [5] [nM],Structure (SMILES),other results
100 to 500,"Clc1ccccc1CN1CCC(N2CCCN(c3nccs3)CC2)CC1 [Example 267, 1-{1-[(2-Chlorophenyl)methyl]piperidin-4-yl}-4-(1,3-thiazol-2-yl)-1,4-diazepane]",
100 to 500,"c1cc(-c2ncc(C3CC3)[nH]2)nc(N2CCCN(C3CCC(N4CCCC4)CC3)CC2)c1 (centres unmarked) [Example 255, 1-[6-(4-Cyclopropyl-1H-imidazol-2-yl)pyridin-2-yl]-4-[4-(pyrrolidin-1-yl)cyclohexyl]-1,4-diazepane]",
20 to 100,"CCc1nc(-c2cccc(N3CCCN(C4CCN(C(C)C)CC4)CC3)n2)[nH]c1CC [Example 120, 1-[6-(4,5-Diethyl-1H-imidazol-2-yl)pyridine-2-yl]-4-[1-(propan-2-yl)piperidin-4-yl]-1,4-diazepane]",
20 to 100,"CC(C)N1CCC(N2CCCN(c3cccc(C(=O)NCc4cccnc4)n3)CC2)CC1C (centres unmarked) [Example 215, 6-{4-[2-Methyl-1-(propan-2-yl)piperidin-4-yl]-1,4-diazepan-1-yl}-N-(pyridin-3-ylmethyl)pyridine-2-carboxamide]",
< 20,O=C(NCC1CC1)c1cccc(N2CCCN(C3CCN(Cc4ccc(F)cc4Cl)CC3)CC2)n1 [Example 135],
500 to 1000,"Cc1nc(-c2cccc(N3CCCN(C4CCN(C(C)C)CC4)CC3)n2)no1 [Example 153, 1-[6-(5-Methyl-1,2,4-oxadiazol-3-yl)pyridin-2-yl]-4-[1-(propan-2-yl)piperidin-4-yl]-1,4-diazepane]",
